Measured values from patent publication US20260199249A1, “SOLID ELACESTRANT DIHYDROCHLORIDE COMPOSITIONS, METHODS OF MAKING THE SAME, AND METHODS OF TREATMENT USING THE SAME” (BERLIN-CHEMIE AG, priority 2023, published 2026).
“Also recorded” adds a separate entry of the source. Where a name gives a salt, the structure may show the parent alone.

Assays:
[1] = test system: ER+HER2-breast cancer models; conditions: including models resistant to fulvestrant and CDK4/6 inhibitors and those harboring ESR1 mutations; cited from earlier work
[2] = Physicochemical properties (Log P, pKa, solubility vs. pH) for PBPK model
Source text: (§1) The physicochemical and biopharmaceutical properties for elacestrant dihydrochloride and its free base, elacestrant, were defined using a combination of in silico estimates from the ADMET Predictor® module that were based on the chemical structure, along with in vitro and in vivo data obtained from the literature and internal data. Table 5 summarizes the parameter values used for the elacestrant dihydrochloride […] pharmacokinetics (PBPK) model.
The solubility vs. pH profile is solved using conventional methods known to those in the art and using the measure pKa values for elacestrant (Table 5). The pHmax for elacestrant is 4.3. These values were used to model in vitro drug product dissolution. The in vivo solubility values of elacestrant dihydrochloride are calculated as a function of the volume administered and the food volume, where relevant.

[3] = test system: ER-positive (ER+) HER2-negative (HER2−) breast cancer cells; conditions: at concentrations inducing degradation of ERα protein; cited from earlier work
[4] = Exposure-response (ER) analysis for PFS; format: in vivo, human; conditions: non-parametric and parametric survival analysis
[5] = Compressibility study (strain rate sensitivity); format: physicochemical
Protocol: To investigate the behavior of elacestrant dihydrochloride under mechanical stress, a compressibility study was performed. […] Thus, deformation was expected to be affected by speed. Crushing strength was rather low at slow speed and decreased as speed increased due to elastic recovery. […] The insights and recommendations from this work led to careful selection of excipients to keep tablet strength high for tablets with drug loads above 25%.

[6] = Human blood-to-plasma ratio; format: in vitro ADME; conditions: blood and plasma, RAD1901-111, read-out: Human blood-to-plasma ratio, initial value
Source text: as §1

[7] = Human effective jejunal permeability; conditions: Caco-2, scaled from in vitro Caco2 data, read-out: Human effective jejunal permeability, initial value
Source text: as §1

[8] = Dissolution in media of pH 1.2, 2.0 (QC), 4.5 and 6.8 with f2 analysis; format: physicochemical; conditions: pH 6.8 (phosphate buffer); dihydrochloride
Protocol: Dissolution profiles for Formulation 2 at the target hardness (13.3 kP and 16.4 kP for 100 mg and 400 mg tablets, respectively), were generated using testing conditions that represented the physiological range of pH 1.2 (0.1 N HCl) to pH 6.8 (phosphate buffer), as well as in the QC medium (0.01 N HCl) and at pH 4.5 (acetate buffer). The dissolution profiles under these various conditions are shown in FIGS. 11A-D (100 mg tablets) and FIGS. 12A-D (400 mg tablets).
FIGS. 13A-D compare the dissolution profiles of the elacestrant dihydrochloride 100 mg drug product used in the Pivotal BE study under 4 different dissolution conditions. […] At the highest tested pH (pH 6.8) the solubility of the drug is so low that this test condition is not a reliable method for testing the dissolution of elacestrant dihydrochloride 100 mg tablets. The curves were compared using f2 analysis. […] Although the data at pH 6.8 also indicate the two curves are similar, the percent released was so low that this comparison was not of any value.

CCNCCc1ccc(CN(CC)c2cc(OC)ccc2[C@@H]2CCc3cc(O)ccc3C2)cc1 [Elacestrant]
antitumor activity [1]: demonstrated in vitro and in vivo antitumor activity | pHmax [2]: 4.3 | solubility ([2]; free base, pH = 10, read-out: Intrinsic solubility): 0.000115 mg/mL | 17β-estradiol mediated cell proliferation [3]: inhibited 17β-estradiol mediated cell proliferation | exposure-response for PFS (progression-free survival) [4]: no differences in PFS across the observed range of elacestrant exposures

CCNCCc1ccc(CN(CC)c2cc(OC)ccc2[C@@H]2CCc3cc(O)ccc3C2)cc1 [Elacestrant Dihydrochloride, (6R)-6-(2-(N-(4-(2-(ethylamino)ethyl)benzyl)-N-ethylamino)-4-methoxyphenyl)-5,6,7,8-tetrahydronaphthalen-2-ol dihydrochloride]
strain rate sensitivity [5]: 15.5% | blood plasma ratio [6]: 0.701 | Papp [7]: 32 ×10⁻⁶ cm/s | logP [2]: 5.56 | solubility ([2]; 0.01 N HCl): feely soluble | pKa ([2]; (A)): 12 | pKa ([2]; (B), first): 6.39 | pKa ([2]; (B), second): 7.74 | solubility ([2]; salt, pH = 4.3, read-out: Intrinsic solubility): 39.4 mg/mL | solubility [8]: significantly lower; also recorded: so low
